Earlier results as cited in patent publication US20070196517A1, “Modified Saponin Molluscicide” (priority 2005, published 2007).
Where a name gives a salt, the structure may show the parent alone.

Tests used:
golden apple snails = settings: rice fields (Bayer, 2005)
tropical fish (carp) = settings: carp (WHO 2002)

## O=C(Nc1ccc([N+](=O)[O-])cc1Cl)c1cc(Cl)ccc1O [Niclosamide, 2-aminoethanol salt of 2′,5-dichloro-4′,nitro-salicylanilide]
Golden apple snails
  effective doses for control of golden apple snail: 0.5 to 1.0 mg/L
Tropical fish (carp)
  LC50 (kills 50% of tropical fish): 0.14 mg/L
